The results in this text go back to PMC6900016, “Synthesis of Indomorphan Pseudo‐Natural Product Inhibitors of Glucose Transporters GLUT‐1 and ‐3” (Angewandte Chemie (International Ed. in English), 2019).

The subject of this test is HCT116. The experiment in a line: cells. Conditions: Homo sapiens, HCT-116, 0.5 h; 2DG uptake. More on the design: 2-deoxyglucose uptake inhibition, semi-automated resazurin/diaphorase fluorescence read-out of 2DG6P. As to the method: Resazurin-based 2DG uptake assay (semi-automated high throughput) All buffers, reagents and steps were identical with those described for the manual screening Washing and [compound left out] addition steps were done using an automated cell washer or a multidrop device, respectively. Screening was performed in a 384-well plates. 15,000 HCT116 cells/well seeded into 384-well black-walled, clear bottomed plates (CellBIND, Corning) and incubated overnight. Compounds were added at 30 µM (final concentration for screening or serial dilutions staring from 30 µM for IC50 determinations) from DMSO stocks using the acoustic nanoliter dispenser ECHO 520. Fluorescence intensity was read from the bottom with a SpectraMax Paradigm Multi-Mode Microplate Reader (Molecular devices) using SUPPORTING INFORMATION 259 control (which was set to 100 %) and cells without 2DG (set to 0 %) using Graph Pad Prism 5 or 6 software and IC50 values were determined using a four-parameter fit. The observed difference in the obtained IC50 values for Glupin in the automated screening vs. manually performed assay is most likely attributed to the minituarization that is required for high-troughput screening and usually requires different plate format (384 vs. 96-well plates) and different cell number. In this case, the automated assay was performed in 384-well plates (vs. 96-well plates for the manual assay) with 15,000 cells per well (vs. 40,000 cells per well in the 96-well plates). For kinetic measurements, 15,000 cells were seeded into black CellBIND 384-well plates (Corning) and allowed to attach overnight. Then, the plates were washed 3X with KRB buffer containing 0.1%BSA and treated with different concentrations of 2DG (0-60mM) and Glupin (0-1µM) for 30s to 30min. The uptake was determined using the resazurin/diaphorase system as described above. 2DG uptake was stopped by aspirating the 2DG solution followed by quick wash with ice-cold KRB buffer (0.1 % BSA). Km and Vmax were determined by fitting the data according to Michaelis-Menten using non-linear fitting. The glucose uptake assay monitored the inhibition of 2‐deoxyglucose (2DG) uptake as described by Yamamoto et al.25 Briefly, 2DG uptake is determined by quantification of the 2DG‐6‐phosphate (2DG6P) that accumulates inside the cells by using the diaphorase‐resazurin/‐resorufin system (see Figure S7 a).
As to `CNC(=O)Cn1c2c(c3ccccc31)CC1CC2C(OC)CN1C(=O)Nc1cccc(C(F)(F)F)c1` (centres unmarked) [5az], the IC50 was over 30 µM.

In the case of `CCOC(=O)Cn1c2c(c3cc(C(=O)OCC)ccc31)CC1CC2C(OC)CN1C(=O)c1cccnc1SC` (centres unmarked) [5i, Ethyl 7-(2-ethoxy-2-oxoethyl)-5-methoxy-3-(2-(methylthio)nicotinoyl)-2,3,4,5,6,7-hexahydro-1H-2,6-methanoazocino[5,4-b]indole-10-carboxylate], the IC50 was over 30 µM. On to `CNC(=O)Cn1c2c(c3ccccc31)CC1CC2C(OC)CN1C(=O)c1cccnc1SC` (centres unmarked) [5m], for which the IC50 was determined as 1.45 ± 0.6 µM. Regarding `CCOC(=O)Cn1c2c(c3ccccc31)CC1CC2C(OC)CN1C(=O)N1CCOCC1` (centres unmarked) [5r], the IC50 was found to be 3.16 µM.

On to `CCOC(=O)Cn1c2c(c3ccccc31)CC1CC2C(OC)CN1C(=O)c1ccco1` (centres unmarked) [5s], for which the IC50 turned out to be 3.4 ± 0.3 µM.
